“Also recorded” adds a separate entry of the source.
Key:
[1] = Hygroscopicity, dynamic vapor sorption (DVS), 0-95% RH; assay type: physicochemical; conditions: for hygroscopicity (in words) / change of crystal form: range of 0-95% relative humidity
Experimental: Dynamic vapor sorption (DVS) method, instrument model: SMS DVS Intrinsic, 0˜95% RH, temperature: 25° C.; FTIR method, instrument model: Nicolet 6700, sectral range: 4000˜400 cm^−1, resolution ratio: 4 cm^−1, scanning times: 32, the infrared spectra of the samples were determined by KBr pressed-disk technique method, temperature: 25° C.;
In this invention, it is named as leonurine crystal form A, which is monohydrate crystal form, square block crystal (as shown in FIG. 13), no crystal transformation before melting, dehydrates at 120˜150° C. and transform into anhydrous crystal form B, and decomposes at about 250° C. […] Under the condition of, in the suspension experiment at 25° C., in methanol, ethanol, isopropanol, acetone, acetonitrile, tetrahydrofuran, nitromethane, ethyl acetate, isopropyl acetate, isoamyl alcohol, methyl tert-butyl ether, toluene, methyl isobutyl ketone, n-hexane, n-heptane, ether, dichloromethane, chloroform, petroleum ether, water and other solvents; and under the condition of, in the suspension experiment at 50° C., in methanol, ethanol, acetone, methyl ethyl ketone, isopropyl acetate, methyl tert-butyl ether, toluene, n-hexane, n-heptane, diethyl ether, chloroform, petroleum ether, water and other solvents; and under most solvent conditions in suspension and volatilization of mixed solvents at 25° C. and 50° C., form A can be obtained. […] In a range of 0˜95% RH, the dehydration and water absorption behavior of the crystal form is very weak.

[2] = Accelerated stability test of leonurine crystal forms; assay type: physicochemical; conditions: for Crystal stability: 70% RH, 10 days
Text: In the invention, the dominant medicinal crystal form was also screened by the accelerated stability experimental method, and observed the transformation among the various crystal forms.

ApoE knockout mice = assay: Serum lipids in hyperlipidemia ApoE knockout mice on high fat diet; assay type: in vivo; conditions: 4 weeks
Experimental: Fifteen C57BL/6J mice (male, 6-8 weeks) and seventy-five ApoE knockout mice (male, 6-8 weeks) were used for experiments. C57BL/6J mice were fed with normal diet, and ApoE knockout mice were fed for 1 week with a diet of normal/high fat diet ratio of 1/1.
Mice were weighed before administered drugs every week, where the dosage of the drug for mice is calculate according to the weight; and housed under 24±1° C. room temperature and 55±5% air humidity condition, and allowed enough food and water ad libitum. After the drug administration continuously for 4 weeks, the mice were anesthetized with pentobarbital sodium according to body weight. Blood (0.5 ml per mouse) was drawn from the inner canthus vein for hematology analysis. Hematology analysis: blood samples were let for standing for 2 h and centrifuged (3000 rpm, 10 min, 4° C.) to obtain serum. The total cholesterol (TC), triacylglycerol (TG) and low-density cholesterol (LDL-C) levels in the serum samples were assessed using automatic biochemical analyzer. Statistical analysis: GraphPad Prism 5 software was used to analyze and draw figure. Results were expressed as the mean±standard (mean±SD), and statistical analysis was performed by one-way analysis of variance (ANOVA) or student's t test. A difference with P<0.05 was considered statistically significant. Statistical significance was set at *P<0.05, **P<0.01, ***P<0.001 versus the model group.

New Zealand white rabbit = assay: Serum lipids in hyperlipidemia New Zealand rabbits on high fat diet; assay type: in vivo; conditions: 12 weeks
Experimental: Forty-eight male New Zealand rabbits weighed 1.8 to 2.2 kg were housed under 12 h dark-12 h light cycles and allowed food and water ad libitum to adapt to the housing environment for one week, and then randomly divided into 6 groups: • 1) Control group (Normal diet, n=8); Administered intragastrically with ultrapure water; • 2) Model group (High fat diet, n=8); Administered intragastrically with ultrapure water; • 3) Leonurine crystal form A in low dose group (High fat diet, n=8); Administered intragastrically at a dose of 4 mg/kg/day; • 4) Leonurine crystal form A in middle dose group (High fat diet, n=8); Administered intragastrically at a dose of 8 mg/kg/day; • 5) Leonurine crystal form A in high dose group (High fat diet, n=8); […] Administered intragastrically at a dose of 2.5 mg/kg/day; Rabbits were weighed before administered drugs every week, where the dosage of the drug for rabbits is calculate according to the weight; and housed in an air-conditioned room under (24±1° C. room temperature and 55±5% air humidity) and allowed enough food and water ad libitum. After 12 weeks of administration, the rabbits were fasted for 12 h, and blood (2 ml) was drawn from the marginal ear vein for hematology analysis. Hematology analysis: blood samples were let for standing for 2 h and centrifuged (3000 rpm, 10 min, 4° C.) to obtain serum. The serum samples were tested according to the protocols recommended by Nanjing Jiancheng Bioengineering Institute. The total cholesterol (TC), triacylglycerol (TG), low-density cholesterol (LDL-C) and […] (HDL-C) levels in the serum samples were assessed using automatic microplate reader and automatic biochemical analyzer. Statistical analysis: GraphPad Prism 5 software was used to analyze and draw figure. Results were expressed as the mean±standard (mean±SD), and statistical analysis was performed by one-way analysis of variance (ANOVA) or student's t test. A difference with P<0.05 was considered statistically significant. Statistical significance was set at *P<0.05, **P<0.01, ***P<0.001 versus the model group.

rhesus monkey = assay: Model of rhesus monkey with hyperlipidemia, long-term administration; assay type: in vivo
[3] = previous toxicological study; cited from earlier work
[4] = listed as leonurine crystal form A
[5] = 40° C., relative humidity 60%-80%, 10-day stability test, listed as leonurine crystal form A
[6] = dose not stated, listed as leonurine crystal form A
[7] = middle dose group 20 mg/kg/day intragastric, vs model group, listed as leonurine crystal form A
[8] = high dose group 16 mg/kg/day intragastric, vs model group

Structure (SMILES): COc1cc(C(=O)OCCCCNC(=N)N)cc(OC)c1O [crystal form A, 4-guanidino-1-butyl 4-hydroxy-3,5-dimethoxybenzoate]
- hygroscopicity, water absorption ([1]; 60% RH): 60% RH, water absorption 0.07%
- hygroscopicity, water absorption ([1]; 80% RH): 80% RH, water absorption 0.12%
- hygroscopicity (in words) [1]: no or almost no hygroscopicity
- change of crystal form ([1]; listed as Crystal Form A): didn't change
- hygroscopicity (in words) ([1]; listed as Crystal Form A): no or almost no hygroscopicity
- change of crystal form [1, 4]: does not change
- hygroscopicity (in words) [1, 4]: no or almost no hygroscopicity
- moisture absorption ([1]; relative humidity from 0 to 95%): about 0.15%
- Crystal stability ([2]; 40° C.): remain unchanged
- Crystal stability ([2]; 40° C., listed as A): stable
- crystal transformation behavior [2, 5]: no crystal transformation behavior
- hygroscopicity (in words) [2, 5]: not obvious
- stability in accelerating experiments ([2]; 40° C./75% RH): most stable
- serum low-density lipoprotein / low-density cholesterol (LDL-C) (ApoE knockout mice; [6]): reduce; also recorded: significantly decrease
- serum total cholesterol (TC) (ApoE knockout mice; [6]): reduce; also recorded: significantly decrease
- serum triglycerides / triacylglycerol (TG) (ApoE knockout mice; [6]): reduce; also recorded: significantly decrease
- serum total cholesterol (TC) (ApoE knockout mice; middle dose group 20 mg/kg/day intragastric, vs model group): reduced
- serum low-density cholesterol (LDL-C) (ApoE knockout mice; [7]): reduced; also recorded: decrease
- serum triacylglycerol (TG) (ApoE knockout mice; [7]): reduced; also recorded: decrease
- serum total cholesterol (TC) (New Zealand white rabbit; [6]): reduce; also recorded: decrease
- serum triglycerides / total triacylglycerol (TG) (New Zealand white rabbit; [6]): reduce; also recorded: decrease
- serum total cholesterol (TC) (New Zealand white rabbit; [8]): reduced
- serum triacylglycerol (TG) (New Zealand white rabbit; [8]): reduced
- serum triacylglycerol (TG) (New Zealand white rabbit; middle dose group 8 mg/kg/day intragastric, vs model group): reduced
- low-density lipoprotein (LDL-C) (rhesus monkey): decreasing
- total cholesterol (TC) (rhesus monkey): decreasing
- toxicity [3]: very low

Source: patent US11446270B2, “Leonurine crystal and use thereof in preparation of insulin sensitizer, hypoglycemic drug and lipid-lowering drug” (ZHUHAI HENGQIN NEW DISTRICT ZHONGZHU ZHENGTAI MEDICAL …, priority 2017, dated 2022)
